According to patent US4314061A, “Certain 3,6-bis-(heteroaminoalkoxy) acridines” (priority 1980, dated 1982):

What was measured:
Columbia SK virus [1] = assay: Antiviral effects against an interferon-sensitive virus, Columbia SK; format: in vivo, Taconic Farms male, white mice; details: 400 mg/kg oral, 18 hours before infection; 14 days post injection
Protocol: Taconic Farms male, white mice, weighing 18-24 g were treated by gavage, 18 hours before infection with a test compound suspended or dissolved in 1.0 ml of 0.2% aqueous agar solution. The mice were then infected by subcutaneous injection with one LD95 of Columbia SK virus in 0.2 ml of distilled water. Groups of infected, untreated mice were used as controls to show the lethality of the infection. The test duration was 14 days.

circulating interferon = assay: Induction of circulating interferon in mice; format: in vivo, BDF1 mice; details: 300 mg/kg single oral
Columbia SK virus [2] = assay: Protection of mice against lethal Columbia SK virus infection by oral pre-treatment; format: in vivo, random-bred Swiss male mice; details: 400 mg/kg oral
Protocol: At 24, 48, 72 and 96 hours after drug treatment, separate groups of mice were injected SC with an LD95 dose of the interferon sensitive virus, Columbia SK. […] Typically, protection from lethal infection with Columbia SK virus is associated with induction of interferon.

normal mouse bone marrow = assay: Effect on normal mouse bone marrow; format: in vivo, C57 BL6 male mice; details: 24 hours after treatment; test compound oral, Cytoxan intraperitoneal
Protocol: The effect of drugs on normal mouse bone marrow is evaluated by determining total cell counts of femurs and by the ability of surviving cells to form colonies in semi-solid medium. The test compound is administered orally and the reference drug Cytoxan is administered intraperitoneally to C57 BL6 male mice. One femur from each of three mice per dose level is assayed 24 hours after treatment. Counts of nucleated cells are performed on pooled marrow suspensions and the clonogenic assay is performed by plating 50,000 cells in one ml. of culture medium in each of four culture dishes. The medium to support bone marrow progenitor cell growth is McCoy's medium supplemented with 0.9% methocel, 1.8% human serum albumin, 10% bovine fetal serum and 10% "conditioned" L-cell medium. Cultures are incubated at 37° C. in a humidified atmosphere and colonies are counted at seven days.

Lewis lung carcinoma = assay: Antitumor activity against intravenously inoculated Lewis lung carcinoma in mice; format: in vivo, BDF1 mice; details: Day +19
Protocol: Lewis lung carcinoma cells, 5×10^5 viable cells, were injected intravenously into BDF1 mice. The drug was prepared in normal saline and administered once daily, by the oral route, at doses ranging from 38 mg./kg to 400 mg/kg on days 1, 7, and 13 following tumor cell inoculation. A control group of mice received a saline placebo, instead of drug, by the oral route on the same days of treatment. All mice were sacrificed on day 19 following tumor inoculation, their lungs removed and individually weighed. Additionally, a group of 10 normal, non-tumor bearing BDF1 mice, of the same sex, age, and body weight as the tumor bearing mice, were sacrificed and their lungs removed and weighed to determine the average normal lung weight. The average normal lung weight was subtracted from the weight of lungs from the tumored mice to determine the weight of tumorous tissue present in the lungs of the tumor bearing mice. A postive drug effect is indicated by a ≥58% reduction in the average lung tumor weight of the drug treated mice, relative to the average lung tumor weight of the saline placebo treated mice.
^1 BDF1 male mice inoculated intravenously with 5 ×
10^5 Lewis lung tumor cells on day zero:
3,6bis(2-diethylaminoethoxy)acridine trihydrochloride administered on day
1,7, and 13 after tumor inoculation.
^2 Average lung tumor weight = average weight of lungs from tumor
bearing mice, minus average weight of lungs from normal, nontumor bearing
*Denotes significant (≥58%) inhibition of lung tumor weight.

[3] = system: Rauscher Virus-Induced Leukemia; assay: Inhibition of splenomegaly in mice with Rauscher virus-induced leukemia; format: in vivo, Balb/c mice
B-16 melanoma = assay: Potentiation of cyclophosphamide (Cytoxan) activity against B16 melanoma in mice; format: in vivo, BDF1 mice
Protocol: BDF1 male mice were inoculated subcutaneously with 0.25 ml. of a 10% B-16 melanoma homogenate. Cyclophosphamide was administered intraperitoneally at 80 mg./kg. the second day following the day of tumor implantation. Test compounds were given intraperitoneally on days +6, +8 and +10 relative to tumor implantation. […]
BDF1 male mice inoculated subcutaneously with 0.25 ml. of a 10% tumo
homogenate on day 0. Drugs were administered intraperitoneally;
cyclophosphoamide on day 2, 3,6bis(2-diethylaminoethoxy)acridine
trihydrochloride on days 6, 8 and 10.
^1 Number of survivors over number of mice treated.

[4] = 25 mg/kg i.p. + cyclophosphamide 80 mg/kg
[5] = 25 mg/kg i.p. + cyclophosphamide 80 mg/kg, day 21
[6] = 50 mg/kg i.p. + cyclophosphamide 80 mg/kg
[7] = 50 mg/kg i.p. + cyclophosphamide 80 mg/kg, day 21
[8] = 100 mg/kg i.p. + cyclophosphamide 80 mg/kg
[9] = 100 mg/kg i.p. + cyclophosphamide 80 mg/kg, day 21

CCN(CC)CCOc1ccc2cc3ccc(OCCN(CC)CC)cc3nc2c1.Cl.Cl.Cl
Survivors/Total (Columbia SK virus [1]): 10/15 | Induction of circulating interferon, in words (circulating interferon): induced the production of high levels of circulating interferon | Time of peak titers of interferon after drug administration (circulating interferon): 16 to 24 h | Serum interferon titer (circulating interferon; 0 hours): 10 units/ml | Serum interferon titer (circulating interferon; 8 hours): 100 units/ml | Serum interferon titer (circulating interferon; 16 hours): 3200 units/ml | Serum interferon titer (circulating interferon; 24 hours): 3200 units/ml | Serum interferon titer (circulating interferon; 32 hours): 2100 units/ml | Serum interferon titer (circulating interferon; 48 hours): 50 units/ml | Interferon titer 72 hours after drug treatment, in words (circulating interferon; 72 hours): at normal levels | Serum interferon titer (circulating interferon; 72 hours): 10 units/ml | Survivors/Total (14 Days) (Columbia SK virus [2]; -24 hr relative to virus challenge, * p <.01): 19/20 | Survivors/Total (14 Days) (Columbia SK virus [2]; -48 hr relative to virus challenge, * p <.01): 10/20 | Survivors/Total (14 Days) (Columbia SK virus [2]; -72 hr relative to virus challenge): 1/20 | Survivors/Total (14 Days) (Columbia SK virus [2]; -96 hr relative to virus challenge): 1/20 | Effect on total nucleated cell count of femur marrow, in words (normal mouse bone marrow): minimal effects on the total nucleated cell count | Average % tumor inhibition (Lewis lung carcinoma; 38 mg/kg oral): 33% | Average lung tumor weight (Lewis lung carcinoma; 38 mg/kg oral): 99 mg | No. Survivors/No. Treated (Lewis lung carcinoma; 38 mg/kg oral): 10/12 | Average % tumor inhibition (Lewis lung carcinoma; 75 mg/kg oral): 5% | Average lung tumor weight (Lewis lung carcinoma; 75 mg/kg oral): 139 mg | No. Survivors/No. Treated (Lewis lung carcinoma; 75 mg/kg oral): 12/12 | Average % tumor inhibition (Lewis lung carcinoma; 150 mg/kg oral): 51% | Average lung tumor weight (Lewis lung carcinoma; 150 mg/kg oral): 72 mg | No. Survivors/No. Treated (Lewis lung carcinoma; 150 mg/kg oral): 12/12 | Average lung tumor weight (Lewis lung carcinoma; 300 mg/kg oral): 40 mg | No. Survivors/No. Treated (Lewis lung carcinoma; 300 mg/kg oral): 12/12 | Average % tumor inhibition (Lewis lung carcinoma; 300 mg/kg oral, * significant (≥58%)): 73% | Average lung tumor weight (Lewis lung carcinoma; 400 mg/kg oral): 12 mg | No. Survivors/No. Treated (Lewis lung carcinoma; 400 mg/kg oral): 10/12 | Average % tumor inhibition (Lewis lung carcinoma; 400 mg/kg oral, * significant (≥58%)): 92% | % Reduction in splenomegaly ([3]; 50 mg/kg): 68% | % Reduction in splenomegaly ([3]; 100 mg/kg): 71% | ILS (Percent increase in life span over control) (B-16 melanoma; [4]): 31% | MST (Median Survival Time) (B-16 melanoma; [4]): 29.5 days | Average tumor weight (B-16 melanoma; [5]): 2029 mg | Number of survivors over number of mice treated (B-16 melanoma; [5]): 8/8 | Number of survivors over number of mice treated (B-16 melanoma; 25 mg/kg i.p. + cyclophosphamide 80 mg/kg, day 26): 6/8 | Average tumor weight (B-16 melanoma; 25 mg/kg i.p. + cyclophosphamide 80 mg/kg, day 26, p <0.05 vs cyclophosphamide alone and vs either drug alone): 3125 mg | ILS (Percent increase in life span over control) (B-16 melanoma; 25 mg/kg i.p. alone): 27% | MST (Median Survival Time) (B-16 melanoma; 25 mg/kg i.p. alone): 28.5 days | Average tumor weight (B-16 melanoma; 25 mg/kg i.p. alone, day 21): 2625 mg | Number of survivors over number of mice treated (B-16 melanoma; 25 mg/kg i.p. alone, day 21): 7/8 | Number of survivors over number of mice treated (B-16 melanoma; 25 mg/kg i.p. alone, day 26): 5/8 | Average tumor weight (B-16 melanoma; 25 mg/kg i.p. alone, day 26, p <0.05 vs untreated): 6303 mg | ILS (Percent increase in life span over control) (B-16 melanoma; [6]): 27% | MST (Median Survival Time) (B-16 melanoma; [6]): 28.5 days | Average tumor weight (B-16 melanoma; [7]): 2041 mg | Number of survivors over number of mice treated (B-16 melanoma; [7]): 8/8 | Number of survivors over number of mice treated (B-16 melanoma; 50 mg/kg i.p. + cyclophosphamide 80 mg/kg, day 26): 7/8 | Average tumor weight (B-16 melanoma; 50 mg/kg i.p. + cyclophosphamide 80 mg/kg, day 26, p <0.05 vs cyclophosphamide alone): 4258 mg | ILS (Percent increase in life span over control) (B-16 melanoma; 50 mg/kg i.p. alone): 18% | MST (Median Survival Time) (B-16 melanoma; 50 mg/kg i.p. alone): 26.5 days | Number of survivors over number of mice treated (B-16 melanoma; 50 mg/kg i.p. alone, day 21): 7/8 | Average tumor weight (B-16 melanoma; 50 mg/kg i.p. alone, day 21, p <0.05 vs untreated): 2168 mg | Number of survivors over number of mice treated (B-16 melanoma; 50 mg/kg i.p. alone, day 26): 4/8 | Average tumor weight (B-16 melanoma; 50 mg/kg i.p. alone, day 26, p <0.05 vs untreated): 3111 mg | ILS (Percent increase in life span over control) (B-16 melanoma; [8]): 22% | MST (Median Survival Time) (B-16 melanoma; [8]): 27.5 days | Average tumor weight (B-16 melanoma; [9]): 1532 mg | Number of survivors over number of mice treated (B-16 melanoma; [9]): 8/8 | Number of survivors over number of mice treated (B-16 melanoma; 100 mg/kg i.p. + cyclophosphamide 80 mg/kg, day 26): 5/8 | Average tumor weight (B-16 melanoma; 100 mg/kg i.p. + cyclophosphamide 80 mg/kg, day 26, p <0.05 vs cyclophosphamide alone): 2836 mg | ILS (Percent increase in life span over control) (B-16 melanoma; 100 mg/kg i.p. alone): 22% | MST (Median Survival Time) (B-16 melanoma; 100 mg/kg i.p. alone): 27.5 days | Number of survivors over number of mice treated (B-16 melanoma; 100 mg/kg i.p. alone, day 21): 7/8 | Average tumor weight (B-16 melanoma; 100 mg/kg i.p. alone, day 21, p <0.05 vs untreated): 1892 mg | Number of survivors over number of mice treated (B-16 melanoma; 100 mg/kg i.p. alone, day 26): 7/8 | Average tumor weight (B-16 melanoma; 100 mg/kg i.p. alone, day 26, p <0.05 vs untreated): 4127 mg | inhibition in local tumor growth (B-16 melanoma; in combination with Cytoxan, i.p., day +26): 50% | 50% inhibition in local tumor growth, in words (B-16 melanoma; monotherapy, i.p., day +26): failed to do so
